Data set [1] has as its system USSR H1N1 virus. In kind it is cell-based, influenza A virus (A/USSR/77).
The next data set has as its system NPTr cells. The conditions noted are these: for cell viability after priming: 30 min priming at doses used for infection studies.
The subject of data set [2] is USSR H1N1 virus. It is filed as cell-based, influenza A virus (A/USSR/77). This is another data set of the same source.
In data set [3] the test system is RSV (A2 strain, ATCC VR-1540). Briefly: RSV production from infected HEp2 cells (immuno-detection / RT-qPCR). It is filed as cell-based, human respiratory syncytial virus. The conditions noted are these: HEp-2 cells; TG 30 min priming, Riba continuously present; four days post-infection. On the technique in general: In qPCR the cycle at which signal appears reflects the starting amount.

The subject of another data set is A549 cells. The experiment in a line: Cell viability of A549 cells (CellTiter-Glo 2.0). In kind it is cell-based, human. The settings on record: RDV continuous, TG 30 min, overnight. How it is done:
(A) A549 cells were primed with indicated TG, 0.3 μM RDV or DMSO control for 30 min, washed twice with PBS and infected with 0.01 MOI of CoV OC43 for 2 h, after which cells were washed again with PBS and incubated in fresh infection media (OptiMEM supplemented with 0.1 μg/ml TPCK-trypsin for TG primed cells, or fresh media in the continuous presence of RDV. At 24, 48 and 72 hpi, viral RNA extraction was performed on collected supernatants followed by one-step reverse transcription qPCR to detect the relative copy number of hCoV OC43 replicase polyprotein lab RNA, based on relative Ct method. Indicated significance relative to corresponding RDV-treated cells based on 2-way ANOVA Tukey's multiple comparisons test. (B) As in (A), A549 cells were primed continuously with RDV, or for 30 min with indicated TG or DMSO, washed, cultured overnight and subjected to cell viability assay (CellTiter-Glo 2.0 Cell Viability Assay, Promega).
A general note: ATP-based viability assays read luminescence as a measure of living cells.

The test system of data set [4] is extracellular Ca^2+ influx. Briefly: Intracellular Ca2+ monitoring assay (Fluo-8) in NPTr cells. It is filed as cell-based, pig.
The subject of the next data set is human coronavirus OC43. It is filed as cell-based. The conditions noted are these: MRC-5 cells; TG 0.05 or 0.5 μM 30 min pre-infection; HC pre-infection or continuous.
For another data set, the system named is SARS-CoV-2. Briefly: SARS-CoV-2 replication in Calu-3 cells (RT-qPCR of media). In kind it is cell-based. The conditions noted are these: Calu-3 cells; […]; HC primed and continuously present.
The subject of a further data set is RIG-I, OAS1 and PKR. It is filed as cell-based, pig. The settings on record: NPTr cells (TG also NHBE cells and myoblasts); priming before or during infection.
The test system of the next data set is pdm H1N1 virus. In kind it is cell-based, influenza A virus (A/California/07/2009).

A value given as a limit tells only on which side of the number the result lay.

On to `Cc1nnsc1C(=O)Nc1ccc(-n2nc(C(F)(F)F)cc2C(F)(F)F)cc1` [BTP2], for which the “progeny virus output vs DMSO control” value in the data set with USSR H1N1 virus [1] was “small increase in progeny virus release”. Further, the “cell viability after priming” value in the data set with NPTr cells is listed as “Non-toxic”.

Turning to `C=C1C(=O)O[C@@H]2[C@H]3C(C)=CC(=O)C3=C(C)CC[C@@H]12` [dehydroleucodine, reference compound], in the data set with USSR H1N1 virus [2], the “progeny virus output” value is “reduced progeny virus output”. For the same compound, in the data set on USSR H1N1 virus [1], the “progeny virus output vs DMSO control” value is reported as “reduced virus production like that of TG”.

As to `NC(=O)c1ncn([C@@H]2O[C@H](CO)[C@@H](O)[C@H]2O)n1` [Riba, ribavirin, reference compound], the “RSV progeny virus production, viral M-gene RNA” value in data set [3] was “significantly inhibited”.

With `COc1ccc(OC)c(-c2ccc(NC(=O)c3ccncc3F)cc2)c1` [Synta66], the “progeny virus output vs DMSO control” value in the data set on USSR H1N1 virus [1] is “small increase in progeny virus release”. Further, the “cell viability after priming” value with NPTr cells was “Non-toxic”.

In the case of `CC1=C2[C@H](/C=C(\C)C(=O)O)CC[C@@H](C)[C@H]2CC1` [valerenic acid], in the data set with USSR H1N1 virus [1], the “progeny virus output vs DMSO control” value is reported as “reduced USSR H1N1 virus production like that of TG”.

In the case of `CCC(CC)COC(=O)[C@H](C)N[P@](=O)(OC[C@H]1O[C@@](C#N)(c2ccc3c(N)ncnn23)[C@H](O)[C@@H]1O)Oc1ccccc1` [RDV, remdesivir, reference compound], in the data set with A549 cells, the “cell viability” value is “no adverse effect on cell viability”.

Regarding `CC(=O)C1=C(O)[C@@H]2[C@H]3c4c[nH]c5cccc(c45)C[C@H]3C(C)(C)N2C1=O` [CPA, Cyclopiazonic acid], the “concentration from which Ca^2+ influx was detected” value in data set [4] is at least 10 µM. In addition, the “reduction in ATP production” value in the data set with NPTr cells (5 μM CPA for 30 min, 24 h incubation) is 8.3%.

As for `CCN(CCO)CCCC(C)Nc1ccnc2cc(Cl)ccc12` (stereo not drawn) [HC, hydroxychloroquine, reference compound], the “hCoV OC43 replication / progeny production” value in the data set on human coronavirus OC43 is reported as “required its continuous presence during infection”. In the data set on SARS-CoV-2, the “SARS-CoV-2 replication” value is listed as “no consistent effect”.

For tunicamycin, the “expression of type I IFN associated genes in response to infection” value in the data set with RIG-I, OAS1 and PKR was “little change in the expression of type I IFN associated genes”. Also, the “extracellular Ca^2+ influx” value in [4] (non-toxic doses (CPA up to 5 μM; TG 10 min)) is “did not induce Ca^2+ influx”. Further, the “progeny virus output vs DMSO control” value in the data set with pdm H1N1 virus and in the data set with USSR H1N1 virus [1] was “only slightly reduced virus production” in each case. In addition, the “virus production relative to correspondingly infected TG primed cells” value in the data set with pdm H1N1 virus (NPTr cells, […]) is 2.8 times; with USSR H1N1 virus [1] (NPTr cells, […]), 7.5 times. The “cell viability after priming” value in the data set on NPTr cells is listed as “did not affect cell viability”.

Turning to `C[C@@H]1CC[C@H]2[C@@H](C)C(=O)O[C@@H]3O[C@@]4(C)CC[C@@H]1[C@]32OO4` [artemisinin], the “progeny virus output vs DMSO control” value in the data set with pdm H1N1 virus and with USSR H1N1 virus [1] was “reduces progeny viral output” throughout.

On to `CC1=C2CC[C@@H](C)[C@H]2[C@H]2[C@@H](CC1)C2(C)C` [(+)-ledene, reference compound], for which, in the data set with USSR H1N1 virus [2], the “progeny virus output” value is “dramatic reduction in progeny virus output”. Further, the “progeny virus output vs DMSO control” value in the data set with USSR H1N1 virus [1] is reported as “reduced virus production like that of TG”.

(Values after patent publication US20240116889A1, “ANTIVIRAL COMPOUNDS AND METHODS” (priority 2019, published 2024).)
